Values quoted from earlier work in patent US20050143344A1, “Methods and compositions using immunomodulatory compounds for the treatment and management of central nervous system disorders or diseases” (priority 2003, published 2005).

Tests used:
[1] = for conversion in acetone and other anhydrous systems: acetone / anhydrous solvent systems
nigrostriatal neurons = settings: lentiviral vector delivery

Molecule: Nc1cccc2c1CN(C1CCC(=O)NC1=O)C2=O (stereo not drawn) [Form B, 3-(4-amino-1-oxo-1,3 dihydro-isoindol-2-yl)-piperidene-2,6-dione]
- conversion upon heating ([1]; 175° C. for about five minutes): can convert to Form F
- conversion in acetone and other anhydrous systems [1]: converts to other forms
- stability / conversion in aqueous solvent systems ([1]; aqueous solvent systems): converts to Form E

Molecule: Nc1cccc2c1CN(C1CCC(=O)NC1=O)C2=O (stereo not drawn) [Form C, 3-(4-amino-1-oxo-1,3 dihydro-isoindol-2-yl)-piperidene-2,6-dione]
- conversion at higher relative humidities [1]: can convert to Form B

Molecule: Nc1cccc2c1CN(C1CCC(=O)NC1=O)C2=O (stereo not drawn) [Form D, 3-(4-amino-1-oxo-1,3 dihydro-isoindol-2-yl)-piperidene-2,6-dione]
- conversion at higher relative humidities [1]: will typically convert to Form B

Molecule: Nc1cccc2c1CN(C1CCC(=O)NC1=O)C2=O (stereo not drawn) [Form E, 3-(4-amino-1-oxo-1,3 dihydro-isoindol-2-yl)-piperidene-2,6-dione]
- conversion in THF solvent system ([1]; THF solvent system): to Form G
- conversion upon heating (desolvation) ([1]; about 125° C. for about five minutes): can convert to Form B
- conversion in acetone and other anhydrous systems [1]: can convert to Form C

B1: GDNF: glial cell line derived neurotrophic factor, delivered by lentiviral vectors to striatum and SN of rhesus monkeys (protein, UniProt P39905 78-211, looked up)
Glial cell line-derived …: SPDKQMAVLPRRERNRQAAAANPENSRGKGRRGQRGKNRGCVLTAIHLNVTDLGLGYETKEELIFRYCSGSCDAAETTYDKILKNLSRNRRLVSDKVGQACCRPIAFDDDLSFLDDNLVYHILRKHSAKRCGCI
modifications: lentiviral vector delivery
notes: glial cell line derived neurotrophic factor, delivered by lentiviral vectors to striatum and SN of rhesus monkeys
- motor deficits (nigrostriatal neurons; MPTP treated monkeys): reversed
- dopaminergic function (nigrostriatal neurons; aged monkeys): augmented
- functional deficits (nigrostriatal neurons; monkeys treated with MPTP): reversed
- nigrostriatal degeneration (nigrostriatal neurons; monkeys treated with MPTP): prevented
